From patent US20040137426A1, “Gp41 peptides and methods based thereon for inhibiting HIV fusion to target cells” (priority 2002, published 2004)
≈ marks a conversion by molar mass, not a printed value.

What was measured:
[1] = system: HXB2 (X4 TCLA virus) pseudovirus; test: Viral entry, Env pseudovirus with luciferase readout: HXB2; assay type: cell-based, HIV-1; settings: from IC50 data of table 3
Protocol: (§1) In preliminary experiments we tested the panel of peptides for inhibition of HIV-1 infectivity using a single CXCR4-using T cell line-adapted virus isolate: HIV-1IIIB. Serial dilutions of the peptides were added to the target cells immediately followed by virus. After 5-7 days culture, supernatant was tested for viral p24 activity using a sensitive p24 ELISA. […] These viruses carry a luciferase readout and are competent for a single cycle of replication only. We chose to test Env from […] viruses representing: X4 TCLA virus (HXB2); X4 primary isolate (WHO D clade); R5X4 dual tropic primary isolate (W61D) and R5 primary isolates (JRFL and Bal).

[2] = system: HIV-1; settings: for activity compared with the new analogues of T-20, T-21 and DP219: qualitative comparison
Protocol: Peptides were tested in vitro for inhibition of early steps in cell-free HIV-1 infection and direct cell-to-cell spread of virus using T-cell line-adapted and primary isolates and recombinant HIV-1 viruses pseudotyped for env using CCR5, CXCR4 or both coreceptors.
Selected de novo designed peptides according to the invention (S291, N36E, W37Q and W371) and the new analogues of T20, T21 and DP219 were evaluated for inhibition of both cell-free HIV-1 infection and of direct cell-to-cell spread using a range of T-cell line-adapted and primary isolates and recombinant HIV-1 pseudotyped for env derived from patient isolates of different clades.

[3] = system: HIV-1 pseudovirus; test: Timing of peptide addition and inhibition of pseudovirus infection; assay type: cell-based
[4] = system: HIV-1; settings: for activity compared with T20 and T1249: across clades, Figs 5 and 6; for IC50: read-out: IC50 in hPBMCs, independent assays in hPBMCs (N36E 6, W37Q 5)
Protocol: The peptides were evaluated against two HIV-1 stains IIIB and BR92/92/021. These two stains were selected in part based on their co-receptor utilization preferences; HIV-1 IIIB utilizes the CXCR4 co-receptor whereas HIV-1 BR92 utilizes CCR5. To test anti-HIV efficacy, fresh Human Peripheral Blood Mononuclear Cells (PBMCs) were obtained from single, normal hepatitis and HIV-1 negative donors. The cells were stimulated by a using CD3+method. Drug testing was performed in a 96 well format in triplicate. Each plate contained control wells (cells+virus), experimental wells (drug+cells+virus) and compound control wells (drug+cells, to monitor cytotoxicity). The read-out for viral infectivity after seven days of infection was based on reverse transcriptase activity of cell free supernatant samples. Drug toxicity was determined in the control well by a standard assay using the tetrazolium compound, which was converted in live cells into a colored formazan product that can readily be monitored on the microtiter plate.
PBMCs were stimulated via the CD3 antigen that is part of the T cell receptor. […] The T cell preparation contains about 50% CD4+cells that are susceptible to HIV-1 infection. Therefore no further separation between CD4+ and CD8+cells is necessary.
The data were obtained according to the following protocol:
Pre-incubate diluted peptides (0 to 50 ug/ml) with virus strain
Add 3 day anti-CD3 stimulated human peripheral blood mononuclear cells (50,000/well)
Incubate 37° C. for 6 days in IL-2 containing media
Test cell-free culture supernatants for reverse transcriptase (RT) activity at day 6
Test cells in cultures for toxicity using an MTS (CellTiter96 Reagent Promega) staining for cell viability
All assay results shown were done in triplicate

[5] = system: JRFL (R5) pseudovirus; test: Viral entry, Env pseudovirus with luciferase readout: JRFL; assay type: cell-based, HIV-1; settings: from IC50 data of table 3
Protocol: as §1

[6] = system: W61D (R5X4 dual tropic primary isolate) pseudovirus; test: Viral entry, Env pseudovirus with luciferase readout: W61D; assay type: cell-based, HIV-1; settings: for N36E on CCR5+ indicator cells
Protocol: as §1

[7] = system: HIV-1 IIIB; assay type: cell-based; settings: lab-adapted HIV-1 IIIB
Protocol: Both involved the culture of the virus with the peptide or its scrambled form for 1 hr at 37° C., 5% CO2 and then subsequent addition of target cells for 7 days. Inhibition was assessed using an enzyme-linked immunosorbent assay (ELISA) of viral core protein p24 antigen.

[8] = system: WHO isolate Clade D (X4) pseudovirus; test: Viral entry, Env pseudovirus with luciferase readout: WHO isolate Clade D; assay type: cell-based, HIV-1; settings: from IC50 data of table 3
Protocol: as §1

[9] = molecular target: HIV-1 IIIB gp41 (HIV-1 IIIB); test: cell-based or functional assay
[10] = system: HL2/3 cells expressing HIV-1IIIB Env fusing with MAGI-CCR5 cells; assay type: cell-based; settings: MAGI-CCR5 / HL2/3; read-out: IC50 cell fusion assay
Protocol: A second panel of anti-HIV-1 peptides according to the invention was evaluated for using the MAGI-CCR5 antiviral assay and a gene reporter cell fusion assay. MAGI-CCR5 is an HIV-1 indicator cell line derived from HeLa cells that express CD4 and the HIV-1 coreceptors CCR5 and CXCR4. These cells contain a gene reporter cassette of β-galactosidase that is expressed from an HIV-1 LTR. Expression of the reporter gene is dependent on the production of HIV-1 tat that occurs following HIV-1 entry. The read-out for viral infectivity after two days of incubation is measurement of β-galactosidase expression detectable by chemoluminescence. The assay structure in the 96 well format as that used in the PBMC assay. The cell fusion assay uses the same indicator cell line (MAGI-CCR5), which is incubated with a HeLa cell based cell line HL2/3 that expresses HIV-1IIIB Env on its surface and contains Tat and Rev expression cassettes. When HL2/3 cells fuse with the MAGI-CCR5 cells, HIV-1 Tat is delivered into the indicator cells leading to activation of the β-galactosidase gene which is under the control of the HIV-1 LTR. The enzyme activity is read out in a similar fashion by chemoluminescence using the same assay structure as mentioned above. This assay is uniquely sensitive to entry inhibitors. […]

CC[C@H](C)[C@H](NC(=O)[C@H](CC(C)C)NC(=O)[C@H](CO)NC(=O)[C@H](Cc1ccc(O)cc1)NC(=O)[C@@H](NC(=O)[C@H](CC(C)C)NC(=O)[C@H](CO)NC(=O)[C@@H](NC(=O)[C@H](Cc1ccc(O)cc1)NC(=O)[C@H](CC(N)=O)NC(=O)[C@H](CC(=O)O)NC(=O)[C@@H](NC(=O)[C@H](CCC(=O)O)NC(=O)[C@H](CCCNC(=N)N)NC(=O)[C@H](CCC(=O)O)NC(=O)[C@H](Cc1c[nH]c2ccccc12)NC(=O)[C@H](CCC(=O)O)NC(=O)[C@H](CCSC)NC(=O)[C@H](Cc1c[nH]c2ccccc12)NC(=O)[C@@H](NC(=O)[C@H](CCSC)NC(=O)[C@H](CC(N)=O)NC(=O)[C@@H](N)CC(N)=O)[C@@H](C)O)[C@@H](C)CC)[C@@H](C)O)[C@@H](C)CC)C(=O)N[C@@H](CCC(=O)O)C(=O)N[C@@H](CCC(=O)O)C(=O)N[C@@H](CO)C(=O)N[C@@H](CCC(N)=O)C(=O)N[C@@H](CC(N)=O)C(=O)N[C@@H](CCC(N)=O)C(=O)N[C@@H](CCC(N)=O)C(=O)N[C@@H](CCC(=O)O)C(=O)N[C@@H](CCCCN)C(=O)N[C@@H](CC(N)=O)C(=O)N[C@@H](CCC(=O)O)C(=O)N[C@@H](CCC(N)=O)C(=O)N[C@@H](CCC(=O)O)C(=O)O [Peptide N36E]
fold more active than Y36F, HXB2 pseudovirus [1]: 5 fold
fold more potent than analogues Y36F, K42K and E30E, frequently [2]: 10 fold
activity compared with the new analogues of T-20, T-21 and DP219 [2]: significantly greater potency
inhibition, peptide preincubated with target cells then washed prior to addition of virus ([3]; cells washed before virus): no inhibitory effect
inhibition, virus preincubated with cells for 1 h prior to addition of peptide ([3]; peptide added 1 h after virus and cells): complete absence of inhibition
inhibitory effect, simultaneous mixing of virus, cells and peptide ([3]; simultaneous addition): most pronounced inhibitory effect
inhibition, virus preincubated with peptide 1 h at 37° C. then washed by ultrafiltration prior to addition to cells ([3]; virus washed before cells): weak but poorly reproducible inhibition
activity compared with T20 and T1249 [4]: compare well to both T20 and to T1249
IC50 [4]: 2 ± 1 nM
fold more active than Y36F, JRFL pseudovirus [5]: 80 fold
fold more active than Y36F, W61D pseudovirus [6]: 18 fold

CC[C@H](C)[C@H](NC(=O)[C@H](CCC(=O)O)NC(=O)[C@H](CCCNC(=N)N)NC(=O)[C@H](CCC(=O)O)NC(=O)[C@H](Cc1c[nH]c2ccccc12)NC(=O)[C@H](CCC(=O)O)NC(=O)[C@H](CCSC)NC(=O)[C@H](Cc1c[nH]c2ccccc12)NC(=O)[C@@H](NC(=O)[C@H](CCSC)NC(=O)[C@H](CC(N)=O)NC(=O)[C@H](CC(N)=O)NC(=O)[C@@H](N)Cc1c[nH]c2ccccc12)[C@@H](C)O)C(=O)N[C@@H](CC(=O)O)C(=O)N[C@@H](CC(N)=O)C(=O)N[C@@H](Cc1ccc(O)cc1)C(=O)N[C@H](C(=O)N[C@@H](CO)C(=O)N[C@@H](CC(C)C)C(=O)O)[C@@H](C)O [Peptide W19L]
MIC HIV-1IIIB infectivity [7]: 0.06 µg/mL (≈ 0.0238 µM)

CC[C@H](C)[C@H](NC(=O)[C@H](CC(C)C)NC(=O)[C@H](CO)NC(=O)[C@H](Cc1ccc(O)cc1)NC(=O)[C@@H](NC(=O)[C@H](CC(C)C)NC(=O)[C@H](CO)NC(=O)[C@@H](NC(=O)[C@H](Cc1ccc(O)cc1)NC(=O)[C@H](CC(N)=O)NC(=O)[C@H](CC(=O)O)NC(=O)[C@@H](NC(=O)[C@H](CCC(=O)O)NC(=O)[C@H](CCCNC(=N)N)NC(=O)[C@H](CCC(=O)O)NC(=O)[C@H](Cc1c[nH]c2ccccc12)NC(=O)[C@H](CCC(=O)O)NC(=O)[C@H](CCSC)NC(=O)[C@H](Cc1c[nH]c2ccccc12)NC(=O)[C@@H](NC(=O)[C@H](CCSC)NC(=O)[C@H](CC(N)=O)NC(=O)[C@H](CC(N)=O)NC(=O)[C@H](Cc1c[nH]c2ccccc12)NC(=O)[C@@H](NC(=O)[C@H](CCC(N)=O)NC(=O)[C@H](CCC(=O)O)NC(=O)[C@H](CC(C)C)NC(=O)[C@H](CO)NC(=O)[C@H](CCCCN)NC(=O)[C@H](CC(N)=O)NC(=O)[C@H](CO)NC(=O)[C@@H](N)Cc1c[nH]c2ccccc12)[C@@H](C)CC)[C@@H](C)O)[C@@H](C)CC)[C@@H](C)O)[C@@H](C)CC)C(=O)N[C@@H](CCC(=O)O)C(=O)N[C@@H](CCC(=O)O)C(=O)N[C@@H](CO)C(=O)N[C@@H](CCC(N)=O)C(=O)O [Peptide W37Q]
fold more potent than analogues Y36F, K42K and E30E, frequently [2]: 10 fold
activity compared with the new analogues of T-20, T-21 and DP219 [2]: significantly greater potency
fold more active than Y36F, WHO D clade pseudovirus [8]: approximately 22 fold
activity compared with T20 and T1249 [4]: compare well to both T20 and to T1249
IC50 [4]: 5 ± 2 nM
fold more active than Y36F, JRFL pseudovirus [5]: ~15 fold
fold more active than Y36F, W61D pseudovirus [6]: ~20 fold

CC[C@H](C)[C@H](NC(=O)[C@H](CC(C)C)NC(=O)[C@H](CO)NC(=O)[C@H](Cc1ccc(O)cc1)NC(=O)[C@@H](NC(=O)[C@H](CC(C)C)NC(=O)[C@H](CO)NC(=O)[C@@H](NC(=O)[C@H](Cc1ccc(O)cc1)NC(=O)[C@H](CC(N)=O)NC(=O)[C@H](CC(=O)O)NC(=O)[C@@H](NC(=O)[C@H](CCC(=O)O)NC(=O)[C@H](CCCNC(=N)N)NC(=O)[C@H](CCC(=O)O)NC(=O)[C@H](Cc1c[nH]c2ccccc12)NC(=O)[C@@H](N)CCC(=O)O)[C@@H](C)CC)[C@@H](C)O)[C@@H](C)CC)C(=O)N[C@@H](CCC(=O)O)C(=O)N[C@@H](CCC(=O)O)C(=O)N[C@@H](CO)C(=O)N[C@@H](CCC(N)=O)C(=O)N[C@@H](CC(N)=O)C(=O)N[C@@H](CCC(N)=O)C(=O)N[C@@H](CCC(N)=O)C(=O)N[C@@H](CCC(=O)O)C(=O)N[C@@H](CCCCN)C(=O)N[C@@H](CC(N)=O)C(=O)N[C@@H](CCC(=O)O)C(=O)N[C@@H](CCC(N)=O)C(=O)N[C@@H](CCC(=O)O)C(=O)O [Synthesised DP219, reference compound]
ID50% HIV-1IIIB infectivity [7]: 6.00 µg/mL (≈ 1.6 µM)
ID90 HIV-1IIIB infectivity [7]: 12.5 µg/mL (≈ 3.34 µM)

Recombinant DP178 (peptide)
ID50%, HIV-1IIIB infectivity [9]: 0.05 µg/mL
ID90, HIV-1IIIB infectivity [9]: 0.09 µg/mL
MIC, HIV-1IIIB infectivity [9]: 0.009 µg/mL

T20 (peptide)
IC50, cell fusion assay (MAGI-CCR5 cells with HL2/3 cells expressing HIV-1IIIB Env) [9]: 30 nM

WNASWSNKSLEQIWNNMTWMEWEREIDNYTSLIYSLI [Peptide W37I]
activity compared with the new analogues of T-20, T-21 and DP219 [2]: broadly similar levels of activity

enfuvirtide
IC50 [10]: ~30 nM
